{"source": "patent US10532069B2", "about": "“Compositions and methods for treating joints” (DePuy Synthes Products, Inc., priority 2015, dated 2020)", "key": {"[1]": {"test_system": "Complete Freund's Adjuvant (CFA) induced joint inflammation in rat", "conditions": "CFA #1", "description": "Because OA is now known to have an inflammatory component, an animal model that mimics inflammatory arthritis was used to test HA/GlcN/CS formulations. Complete Freund's Adjuvant (CFA) comprises an emulsion of killed bacterial cells that is injected systemically or into the joint of a rat to induce severe inflammation. Two CFA studies were conducted, the first using a 200 uL injection of CFA to induce inflammation (CFA #1), the second using an injection volume of 100 uL (CFA #2). Test articles were prepared using the liquid/liquid formulation method described above.\nVon Frey filaments were used to assess mechano-allodynia (pain sensation from a normally non-painful stimulus) on days 6, 7, 8, 17, and 21 following CFA injection. […] This protocol was used to test the 18.0 and 1.8 mg/mL HA/GlcN/CS formulations. As with the rat MMT model, the cumulative improvements in pain relief were calculated. […] In this figure, the 1.8 mg/mL HA/GlcN/CS group and the 18 mg/mL HA/GlcN/CS group are labeled as “G/C 1.8 mg/ml” and “G/C 18 mg/ml”, respectively. The untreated group is labeled as “Untx” in this figure."}, "[2]": {"test_system": "PGPS (peptidoglycan polysaccharide) reactivation arthritis in male Lewis rats", "test": "PGPS model of episodic inflammatory arthritis: weight bearing and gait analysis", "assay_type": "in vivo", "conditions": "PGPS second reactivation (after repriming)", "description": "The PGPS model of arthritis is used to simulate episodic inflammation of the joint. PGPS (peptidoglycan polysaccharide) is a streptococcal cell wall formulation that is injected directly into the joint of the test subject, resulting in a painful inflammatory response. Unlike the continuous FCA response, the inflammatory pain from PGPS is transient, typically lasting only a few days. Following this “priming” injection to the joint, subsequent systemic injections result in inflammatory flares in the previously injected joint for a period of several days. The “reactivation” inflammatory flares can be repeated multiple times, with the inflammatory pain generally decreasing with subsequent reactivation cycles. Alternatively, the joint can be “reprimed” following the initial reactivation, resulting in a more robust inflammatory response in subsequent reactivations.\nAs with the rat MMT model, the effect of intra-articular therapies is assessed by static weight bearing measurements. […]\nIn the present experiment, two reactivation cycles were induced in male Lewis rats following the initial PGPS intra-articular injection. […] Weight bearing and gait analysis scores were recorded on days 1, 4, 7, and 14 following the reactivation injection. […] Weight bearing and gait analysis scores were recorded on days 1, 2, 3, and 4 following reactivation. […]"}, "[3]": {"test_system": "Complete Freund's Adjuvant (CFA) induced joint inflammation in rat", "test": "CFA model of inflammatory arthritis, study CFA #2 (100 uL CFA)", "assay_type": "in vivo", "conditions": "daily oral, high dose 30 mg/kg, FIG. 8", "description": "In CFA #2 the same protocol was followed except for the lower dose of CFA which was intended to induce a less severe inflammatory reaction and subsequently milder pain. Also, daily oral ibuprofen (labeled as “IBR” in FIG. 8) was used as a positive control rather than diclofenac, at doses of 10 mg/kg and high 30 mg/kg. These doses were equivalent to human daily doses of […] and 3600 mg, respectively. Both are considered high doses of ibuprofen that are generally not recommended for long term use."}}}
{"molecule": "O=C(O)Cc1ccccc1Nc1c(Cl)cccc1Cl", "note": "[diclofenac]", "values": [{"measurement": "safety (premature deaths of animals)", "setting": "[1]", "result": "several animals in the diclofenac group died prematurely"}, {"measurement": "AUC analysis of pain relief compared to HA alone", "setting": "[1]; comparison with HA alone, FIG. 7", "result": "statistically superior to HA alone"}, {"measurement": "AUC analysis of pain relief (Von Frey mechano-allodynia)", "setting": "[1]; single IA injection on day 5 after CFA (diclofenac daily oral), days 6, 7, 8, 17, 21, FIG. 7", "result": "significant improvement in pain relief"}]}
{"molecule": "C[C@]12C=CC(=O)C=C1CC[C@H]1[C@@H]3C[C@@H](O)[C@](O)(C(=O)CO)[C@@]3(C)C[C@H](O)[C@@]12F", "note": "[triamcinolone]", "values": [{"measurement": "weight bearing deficit", "setting": "[2]", "result": "significant improvement"}]}
{"molecule": "CC(C)Cc1ccc(C(C)C(=O)O)cc1", "note": "(centres unmarked) [ibuprofen]", "values": [{"measurement": "pain relief as cumulative improvement in weight bearing deficiency", "setting": "[3]", "result": "significant improvement in pain relief"}]}
